Source: US8314144B2, “Compounds having antitumor activity” (Defiante Farmaceutica, S.A., priority 2004, dated 2012)
Like-named read-outs stand apart in the source and are kept apart here.

How the values were obtained:
[1] = test system: human hepatocarcinoma cells (HepG2); experiment: cells; conditions: HepG2, read-out: cell mortality
Protocol: The tumor cell line HepG2 was provided by ATCC (American Type Cell Culture—Mannas, Va., No. HB-8065) and subsequently developed in our laboratory. The cells were cultured in complete medium containing MEM added with 10% FCS (bovine fetal serum), 1 mM Na-pyruvate, 2 mM L-glutamine, 0.1 mM non-essential amino acids and antibiotics (penicillin/streptomycin). The medium, culture products and reagents were purchased from Hyclone-Celbio (Milan, Italy). The experimental design provided for the use of ST1326 and of known antineoplastic drugs, such as doxorubicin, against which the HepG2 cells show a high resistance, to determine the agonist action of the compound. […] In this experiment, the following compounds were added to hemiconfluent HepG2 cells in 96 well plates: • 0.25, 0.5, 5.0 μg/mL doxorubicin; • 0.1 μM ST in combination with 0.25 μg/mL doxorubicin.
After 24 hr incubation, the medium containing different concentrations of doxorubicin and the ST/doxorubicin combination was removed and the cells were washed with complete medium. After 3-day treatment, the antineoplastic effect of the test compound was determined in comparison with control cells incubated in complete medium for the same period of time.
The cell mortality was calculated as the percentage (mean±standard deviation) over 10.000 acquired events.

[2] = test system: human hepatocarcinoma cells (HepG2); experiment: HepG2 cell count (trypan blue exclusion), antiproliferative and tumoricidal effect; type: cell-based; conditions: for number of viable cells versus control cultures (FIGURE): HepG2, less than 10 μM, after 24 hours; for antiproliferative and tumoricidal activity in vitro: tumor cell lines, same experimental conditions for etomoxir and compounds (I)
Protocol: (§1) The cells were seeded in 60 mm-diameter Petri dishes. After plating the cells were grown for 24 hours prior to their treatment.
(§2) In this experiment, increasing amounts of the test molecule were added to hemiconfluent HepG2 cells (Kogure et al., Cancer Chemother. Pharmacol., 2003; DOI. 10.1007/s); the antiproliferative and proapoptotic effects were determined at different times from cell seeding.
(§3) The experimental design in some cases provided for the addition of the test compound once the cell culture had been prepared, in other cases the cultures were exposed to the compound every 24 hours after suitably removing the conditioned medium and washing the cells with new (complete) medium. The cells were counted in a Bürker chamber after suitable dilution with a vital dye to visualize the living cells. In particular, the trypan blue exclusion method was used for cell count at 0, 24 and 48 hour treatment. At least 10 cell counts were performed for each experiment and each treatment was carried out in quadruple.
(§4) A further analysis involved cytofluorimetry utilizing propidium iodide as a marker for […] cells. The test compound was assayed vs. the CTP inhibitor etomoxir to verify whether the tumoricidal effect could be attributed to CPT-1 inhibition or involved novel mechanisms.
The data relating to cell viability are expressed as percentage on the number of viable cells from control cultures (=100%). (E=etomoxir; ST1326=tested compound). […] At the same concentrations etomoxir was ineffective.

[3] = test system: human hepatocarcinoma cells (HepG2); experiment: Cell mortality of HepG2 cells by propidium iodide flow cytofluorimetry; type: cell-based; conditions: for mortality at 5 µM / mortality at 20 µM: Homo sapiens
Protocol: as §1, §2, §3, §4
In addition, assays on cell viability were carried out using flow cytofluorimetry techniques.
In further experiments the test molecule was added every 24 hours, as above described, after suitably removing the surnatants and washing the cultures with complete medium. […] In the control, the surnatant was eliminated and complete medium alone was added to the cultures.

normal PBMCs = experiment: Viability test with lymphocytes (PBMCs) taken from healthy individuals; type: cell-based; conditions: 72 hours
Protocol: In addition, in order to exclude the induction of toxicity in normal PBMCs by the test molecule, viability tests were also carried out with lymphocytes taken from healthy individuals and contacted with the test compound.

[4] = test system: AH-130 Yoshida ascites hepatoma; experiment: In vivo antineoplastic activity in rats bearing Yoshida tumor; design: species or system rat; conditions: 25 mg/Kg i.p., alternate days, 4 treatments, 15 animals
Protocol: Male Wistar rats (Morini s.r.l.) of 190-200 g weight were maintained at 22±2° C., with a light/dark cycle of 12 hours, and were given free access to water and food (standard diet). Some rats were intraperitoneally inoculated with 10×10^7 cells from AH-130 Yoshida ascites hepatoma (Llovera et al., Int. J. Cancer 61:138-41 (1995); kind gift from Prof. J M Argilès). 5-7 days after the inoculum, the rats developed an ascites that could be detected by macroscopic analysis of the abdomen.
(§5) The experimental protocol provided that 7 days after ascites induction 15 animals (treated group) received 2 ml of a buffered saline containing ST (25 mg/Kg i.p.), whereas other 15 animals (control group) received the buffered saline alone. The same treatment was conducted at alternate days for one week up to a total of 4 treatments for each animal. The dosage was selected on the basis of preliminary studies in which a 6.1 μM plasma concentration of ST was achieved 5 hr after intraperitoneal administration. The animals were subsequently kept under observation for 3 weeks (follow-up), examining the ascites effusion, the presence of subcutaneous neoplastic mass in the inoculum site, and the mortality.

[5] = test system: acute leukaemia T cells (Jurkat); experiment: Cell mortality of Jurkat cells by propidium iodide flow cytofluorimetry; type: cell-based
Protocol: The cells were seeded in […] flasks. After plating the cells were grown for 24 hours prior to their treatment.
The experiment was carried out by adding increasing amounts of the test molecule to hemiconfluent Jurkat cells; the proapoptotic effect was determined at different times from culture preparation.
The experimental design provided for the addition of the test compound only at the start of cell culturing, and the determination of the effects at the established times. The data on cell mortality were obtained using propidium iodide flow cytofluorimetry techniques only. The fact that those cells live suspended in culture rendered these assays extremely easy to perform.
For this reason the cell mortality was determined just after 2 hour treatment and at 24, 48 and 72 hrs.
The mortality was calculated as the percentage over 10.000 acquired standard events. Since the results are almost exactly overlapping, with very low deviation in all the readings for each single experiment, the mean values of 5 cytofluorimetric readings are reported in the following Table without standard deviation.

[6] = Plasma concentration after intraperitoneal administration (preliminary studies); type: in vivo, rat; conditions: 5 hr after intraperitoneal administration
Protocol: as §5

COc1cccc2c1C(=O)c1c(O)c3c(c(O)c1C2=O)C[C@@](O)(C(=O)CO)C[C@@H]3O[C@H]1C[C@H](N)[C@H](O)[C@H](C)O1 [Doxorubicina, doxorubicin]
mortality at 0.25 µg/mL [1]: 11.2 ± 1.5% | mortality at 0.5 µg/mL [1]: 22.7 ± 3.5% | mortality at 5 µg/mL [1]: 48.6 ± 4.1%

CCOC(=O)[C@@]1(CCCCCCOc2ccc(Cl)cc2)CO1 [Etomoxir, etomoxir, reference compound]
number of viable cells versus control cultures (FIGURE) [2]: ineffective | antiproliferative and tumoricidal activity in vitro [2]: did not show any antiproliferative or tumoricidal activity | mortality at 5 µM ([3]; HepG2, 24 h, read-out: cell mortality, HepG2, 5 μM, treated only once (time 0), 24 hours): 10.8 ± 1.65% | mortality at 20 µM ([3]; HepG2, 24 h, read-out: cell mortality, HepG2, 20 μM, treated only once (time 0), 24 hours): 13 ± 1.07% | mortality at 5 µM ([3]; HepG2, 48 h, read-out: cell mortality, HepG2, 5 μM, treated only once (time 0), 48 hours): 11.8 ± 0.4% | mortality at 20 µM ([3]; HepG2, 48 h, read-out: cell mortality, HepG2, 20 μM, treated only once (time 0), 48 hours): 11.2 ± 1.3% | mortality at 5 µM ([3]; HepG2, 72 h, read-out: cell mortality, HepG2, 5 μM, treated only once (time 0), 72 hours): 10.1 ± 2.1% | mortality at 20 µM ([3]; HepG2, 72 h, read-out: cell mortality, HepG2, 20 μM, treated only once (time 0), 72 hours): 11.7 ± 1.3% | mortality at 5 µM ([3]; HepG2, read-out: cell mortality, HepG2, 5 μM added every 24 hours, 48 hours (second addition)): 10.2 ± 1.7% | mortality at 5 µM ([3]; HepG2, read-out: cell mortality, HepG2, 5 μM added every 24 hours, 72 hours (third addition)): 12.6 ± 1.1% | mortality at 20 µM ([3]; HepG2, read-out: cell mortality, HepG2, 20 μM added every 24 hours, 48 hours (second addition)): 13.9 ± 1.2% | mortality at 20 µM ([3]; HepG2, read-out: cell mortality, HepG2, 20 μM added every 24 hours, 72 hours (third addition)): 14.1 ± 0.9%

CCCCCCCCCCCCCCNC(=O)N[C@H](CC(=O)[O-])C[N+](C)(C)C [ST1326, R-4-trimethylammonium-3-(tetradecylcarbamoyl)-Aminobutyrate]
viability test (cell mortality) in PBMCs (normal PBMCs; 1.0 μM): 9% | viability test (cell mortality) in PBMCs (normal PBMCs; 5.0 μM): 10% | viability test (cell mortality) in PBMCs (normal PBMCs; 10 μM): 10% | viability test (cell mortality) in PBMCs (normal PBMCs; 20 μM): 12% | Presence of cachexy (No. of animals) [4]: 1 | Presence of tumor cells in the abdominal cavity (post-mortem examination) (No. of animals) [4]: 0 | Presence of tumor mass in the inoculum site (No. of animals) [4]: 0 | Survival at 1 week follow-up (No. of survived animals) [4]: 15 | Survival at 2 week follow-up (No. of survived animals) [4]: 15 | Survival at 3 week follow-up (No. of survived animals) [4]: 15 | number of viable cells versus control cultures (FIGURE) [2]: remarkable reduction in the number of cells | antiproliferative and tumoricidal activity in vitro [2]: in vitro antiproliferative effect associated with a significant tumoricidal activity | cell mortality ([5]; 0.1 μM, 2 hours): 3% | cell mortality ([5]; 0.1 μM, 24 hours): 4% | cell mortality ([5]; 0.1 μM, 48 hours): 5% | cell mortality ([5]; 0.1 μM, 72 hours): 13% | cell mortality ([5]; 0.25 μM, 2 hours): 3% | cell mortality ([5]; 0.25 μM, 24 hours): 5% | cell mortality ([5]; 0.25 μM, 48 hours): 8% | cell mortality ([5]; 0.25 μM, 72 hours): 14% | cell mortality ([5]; 0.50 μM, 2 hours): 7% | cell mortality ([5]; 0.50 μM, 24 hours): 15% | cell mortality ([5]; 0.50 μM, 48 hours): 35% | cell mortality ([5]; 0.50 μM, 72 hours): 56% | cell mortality ([5]; 1.0 μM, 2 hours): 6% | cell mortality ([5]; 1.0 μM, 24 hours): 79% | cell mortality ([5]; 1.0 μM, 48 hours): 83% | cell mortality ([5]; 1.0 μM, 72 hours): 90% | cell mortality ([5]; 2.5 μM, 2 hours): 6% | cell mortality ([5]; 2.5 μM, 24 hours): 91% | cell mortality ([5]; 2.5 μM, 48 hours): 97% | cell mortality ([5]; 2.5 μM, 72 hours): 99% | cell mortality ([5]; 5.0 μM, 2 hours): 8% | cell mortality ([5]; 5.0 μM, 24 hours): 99% | cell mortality ([5]; 5.0 μM, 48 hours): 99% | cell mortality ([5]; 5.0 μM, 72 hours): 99% | cell mortality ([5]; 10 μM, 2 hours): 20% | cell mortality ([5]; 10 μM, 24 hours): 99% | cell mortality ([5]; 10 μM, 48 hours): 99% | cell mortality ([5]; 10 μM, 72 hours): 99% | plasma concentration [6]: 6.1 µM | cell mortality ([3]; HepG2, 0.1 μM added every 24 hours, 48 hours (second addition)): 45 ± 2.0% | cell mortality ([3]; HepG2, 0.1 μM added every 24 hours, 72 hours (third addition)): 56.5 ± 1.2% | cell mortality ([3]; HepG2, 0.1 μM, prior experiments, partial tumoricidal effect): ~50% | cell mortality ([3]; HepG2, 0.1 μM, treated only once (time 0), 24 hours): 15.3 ± 2.1% | cell mortality ([3]; HepG2, 0.1 μM, treated only once (time 0), 48 hours): 27.3 ± 2.2% | cell mortality ([3]; HepG2, 0.1 μM, treated only once (time 0), 72 hours): 49.9 ± 1.2% | cell mortality ([3]; HepG2, 5 μM added every 24 hours, 48 hours (second addition)): 64.7 ± 1.7% | cell mortality ([3]; HepG2, 5 μM added every 24 hours, 72 hours (third addition)): 89.7 ± 1.4% | cell mortality ([3]; HepG2, 5 μM, treated only once (time 0), 24 hours): 25.78 ± 1.70% | cell mortality ([3]; HepG2, 5 μM, treated only once (time 0), 48 hours): 56.29 ± 1.51% | cell mortality ([3]; HepG2, 5 μM, treated only once (time 0), 72 hours): 93.48 ± 1.5% | cell mortality ([3]; HepG2, 10 μM added every 24 hours, 48 hours (second addition)): 87.5 ± 2.03% | cell mortality ([3]; HepG2, 10 μM added every 24 hours, 72 hours (third addition)): 91.3 ± 1.9% | cell mortality ([3]; HepG2, 10 μM, treated only once (time 0), 24 hours): 53.21 ± 1.5% | cell mortality ([3]; HepG2, 10 μM, treated only once (time 0), 48 hours): 85.10 ± 0.9% | cell mortality ([3]; HepG2, 10 μM, treated only once (time 0), 72 hours): 96.3 ± 1.1% | cell mortality ([3]; HepG2, 20 μM added every 24 hours, 48 hours (second addition)): 93.9 ± 1.03% | cell mortality ([3]; HepG2, 20 μM added every 24 hours, 72 hours (third addition)): 98.1 ± 0.9% | cell mortality ([3]; HepG2, 20 μM, treated only once (time 0), 24 hours): 88.22 ± 1.9% | cell mortality ([3]; HepG2, 20 μM, treated only once (time 0), 48 hours): 89.10 ± 0.17% | cell mortality ([3]; HepG2, 20 μM, treated only once (time 0), 72 hours): 98.51 ± 1.3%
